Patent publication US20050260582A1, “Cell proliferation inhibitors comprising ets transcription factor or gene encoding the same” (priority 2001, published 2005)
Each block holds one compound with its values, some of them ahead of it.

How the values were obtained:
A549 cell = test: Cell morphology and F-actin staining; format: cell-based, human
Method: In FIG. 4, A549 cell, MEF gene overexpressing […] cell and A549 cell treated with BB94 (10 μM) are shown respectively from the left side.
Moreover, it has been reported that metastasis from epithelium to mesenchyme is induced by lack of E-cadherin or activation of MMPs [Llorens et al., 1998], expression of MMPs and E-cadherin was next examined. The right side in FIG. 5 is a photograph in place of a drawing, showing results of analyzing an MMP-9 protein content of A549 cell and MEF gene overexpressing cell in a serum-free culture supernatant (conditioned media) by western blotting using anti-MMP-9 antibody, and the left side in FIG. 5 is a photograph in place of a drawing, showing results of gelatin-zymography of MMP-9. […] In order to examine the decrease in MMP-9 activity in MEF gene overexpressing cell, A549 cell was treated with BB94 as an MMP inhibitor. […] Generally, such a morphological change thereof indicates reduction of an invasion activity. Accordingly, for examining an invasive function of A549 cell and MEF gene overexpressing cell, matrigel invasion assay was performed. In an upper chamber of FIG. 6, 2.5×10^5 A549 cells (left side), MEF gene overexpressing cells (center) and A549 cells (right side) treated with BB94 were inoculated respectively, and the numbers of cells on the lower side which were passed through a 8-μm filter were counted. […]

A549 cells = test: Matrigel invasion assay; format: cell-based, human; details: cells passed through 8-μm filter after 24 hours; BB94-treated A549 as comparison
Text: Moreover, it has been reported that metastasis from epithelium to mesenchyme is induced by lack of E-cadherin or activation of MMPs [Llorens et al., 1998], expression of MMPs and E-cadherin was next examined. The right side in FIG. 5 is a photograph in place of a drawing, showing results of analyzing an MMP-9 protein content of A549 cell and MEF gene overexpressing cell in a serum-free culture supernatant (conditioned media) by western blotting using anti-MMP-9 antibody, and the left side in FIG. 5 is a photograph in place of a drawing, showing results of gelatin-zymography of MMP-9. […] In an upper chamber of FIG. 6, 2.5×10^5 A549 cells (left side), MEF gene overexpressing cells (center) and A549 cells (right side) treated with BB94 were inoculated respectively, and the numbers of cells on the lower side which were passed through a 8-μm filter were counted. […]
200 μl of each cell suspension prepared to a concentration of 1.0×10^6 cells/ml was added to an upper layer of a matrigel invasion chamber (BD Biocoat Matrigel) having 8-μm pores, and 700 μl of a serum-free culture solution was added thereto. After 24 hours, the cells invaded in the lower layer of the membrane filter were stained with hematoxylin, and the number of the cells was then counted under a microscope.

MEF expression = MEF expression by RT-PCR; format: cell-based, human
Text: Next, since methylcytosine is recognized with methylated DNA bound to protein MeCP2 interacting with HDAC [Ng et al, 1999], the present inventors examined the effect given by the combined use of 5-aza-2′-deoxycytidine (5-azacytidine) as a demethylation agent and tricostatin A as a histone deacylase inhibitor in MEF expression of A549 cell. The results are shown in photographs in place of drawings in FIG. 3. […] GAPDH is shown as a control. In FIG. 3, HEK293 cell, A549 cell and Caco-2 cell are shown from the left side in an upper panel, and A549 cell and Caco-2 cell from the left side in a lower panel. In FIG. 3, DMSO indicates dimethyl sulfoxide, 5-AC indicates 5-azacytidine and TSA indicates tricostatin A respectively. […] The low MEF expression in Hela cell is considered to be attributed to any other unknown mechanism. This is also backed up by the report that Hela cell lacking in known methylation-dependent inhibitor MeCP2 becomes a silence methylation gene using another route including MBD2 [Ng et al., 1999].
Isogene (Nippon Gene) was used in extraction of all RNAs from culture cells. For comparison of various gene expressions of culture cells, RT-PCR was conducted. RNA PCR kit (AMV) ver. 2.1 (TaKaRa) was used for RT-PCR. The methods by which the gene expression identified in the invention are outlined below.
A reverse transcription reaction (at 42° C. for 60 minutes, at 99° C. for 5 minutes, at 5° C. for 5 minutes) was performed using 1 μg of all RNAs extracted from A549 and other cells as templates and oligo dT primers. Thereafter, PCR (at 94° C. for 2 minutes—1 cycle; at 94° C. for 30 seconds, at 58° C. for 30 seconds, at 72° C. for 30 seconds—40 cycles) was performed using an upstream primer (5′-[…]-3,) and a downstream primer (5,-[…]-3′).

MMP-9 promoter = test: Luciferase assay using MMP-9 promoter; format: cell-based, human; details: 5-azacytidine (1 μM) and trichosamine A (1 μM)
Method: (§1) Accordingly, the present inventors further examined the function of MEF on transcription of MMP-9 and IL-8. For examining whether MEF directly suppresses transcription of MMP-9 and IL-8, the present inventors performed luciferase assay using MMP-9 and IL-8 promoters. […] In each case, the ordinate represents a relative luciferase activity, and the abscissa represents Basal, A549 cell, a case of adding 1.0 μM MEF, a case of adding 3.0 μM MEF, a case of adding 5.0 μM MEF and a case of adding MEF gene overexpressing cell (clone 71) from the left respectively. In A549 cell, a high luciferase activity of MMP-9 and IL-8 promoters was observed (FIG. 20). […] In each graph, the ordinate represents a relative luciferase activity, and the abscissa represents Basal, A549 cell, a case of adding Est-2 and a case of adding anti-Est-2 from the left respectively.
(§2) The finding of MMP-9 activation with ETS-2 is also backed up by the study on target deletion of Ets-2 using mice [Yamamoto, 1998]. Since MEF is, unlike PU-1, free from a repressor region [Kihara-Negishi, 2001] and interacts with HDAC or Sin3A having a deacetylase activity, the present inventors next assumed that MEF is a competitor with ETS-2 in ets binding sites of these promoters. […]

IL-8 promoter = test: Luciferase assay using IL-8 promoter; format: cell-based, human; details: 5-azacytidine (1 μM) and trichosamine A (1 μM)
Method: as §1, §2

[1] = tested on: human umbilical vein endothelial cells (HUVECs); test: Migration of HUVECs toward serum-free culture supernatant; format: cell-based; details: 8-μm filter, 24 hours; A549 supernatant accelerated migration; bFGF positive control
Text: Successively, it was further examined whether MEF gene overexpression of A549 cells influences metastasis of vessel endothelial cells. […] Human umbilical vein endothelial cells (HUVECs) were inoculated in an upper chamber, and cells migrating in a medium of a lower chamber were observed through a 8-μm filter.
The results are shown in FIG. 17 by photographs in place of drawings. […] In FIG. 18, the ordinate represents a (%) migration activity relative to a non-treated case, and the abscissa represents a non-treated case, a case of bFGF, a case of A549 cell and a case of MEF gene overexpressing cell (clone 71) from the left side respectively.
[…] of a cell suspension containing HUVECs at a concentration of 2.5×10^5 cells/ml was added to an upper layer of a matrigel invasion chamber (BD Biocoat Matrigel) having 8-μm pores. Subsequently, 700 μl of a serum-free culture supernatant produced according to 1. of Example 10 was added to a lower layer. After 24 hours, HUVECs invaded into the lower layer of the membrane filter were stained with hematoxylin, and the number of cells was then counted under a microscope.

Compound: CNC(=O)[C@H](Cc1ccccc1)NC(=O)[C@H](CC(C)C)[C@H](CSc1cccs1)C(=O)NO [BB94]
F-actin localization (A549 cell; MEF gene overexpression or BB94 10 μM): localization of F-actin in the interface between cells
morphological change (A549 cell; MEF gene overexpression, BB94 10 μM or 5-azacytidine 10 μm): induced typical morphological change
invasion activity (A549 cells): inhibitory effect

MMP-9 promoter activity (MMP-9 promoter): inhibited
IL-8 promoter activity (IL-8 promoter): inhibited
Compound: CC(/C=C/C(=O)NO)=C\[C@@H](C)C(=O)c1ccc(N(C)C)cc1 [tricostatin A]
MEF expression (MEF expression; A549 cell, combined use of 5-azacytidine (1 μM) and tricostatin A (300 μM)): clearly increased the MEF expression
MEF expression (MEF expression; A549 cell, single use of the reagent): increased the MEF expression only slightly
MEF expression (MEF expression; Caco-2 cell, 5-azacytidine and tricostatin A): same effect was observed
MEF expression (MEF expression; HEK293 cell, 5-azacytidine and tricostatin A): not in HEK293 and Hela cells
MEF expression (MEF expression; Hela cell, 5-azacytidine and tricostatin A): not in HEK293 and Hela cells

Compound: bFGF: basic FGF, positive control for HUVEC migration
migration of HUVECs [1]: increased migration of HUVECs
